What was measured:
[1] = biological target: T1, RET (Homo sapiens, UniProt P07949); assay: Kinase panel inhibition, radiolabeled [γ-33P] ATP (Reaction Biology Corp); type: biochemical; conditions: for remaining activity at 1 µM: compound at 1 uM, ATP 10 µM, read-out: % Enzyme Activity (relative to DMSO controls) RET; for IC50: read-out: Enzymatic inhibitory activity (IC50) nM RET
T1 construct: purchased Reaction Biology Corp
Description: (§1) Using radiolabeled ATP ([γ-33P] ATP), the degree to which the substrate was replaced by a 33P-phosphorylated substrate was measured, and changes in kinase activity were determined from the measurement of the radiolabeled phosphorylated substrate.

[2] = biological target: T2, RET(G810R) (Homo sapiens, UniProt P07949, G810R); assay: as above; type: biochemical; conditions: for remaining activity at 1 µM: compound at 1 uM, ATP 10 µM, read-out: % Enzyme Activity (relative to DMSO controls) G810R; for IC50: read-out: Enzymatic inhibitory activity (IC50) nM G810R
T2 construct: purchased Reaction Biology Corp
T2 sequence (P07949 29-1114 G810R): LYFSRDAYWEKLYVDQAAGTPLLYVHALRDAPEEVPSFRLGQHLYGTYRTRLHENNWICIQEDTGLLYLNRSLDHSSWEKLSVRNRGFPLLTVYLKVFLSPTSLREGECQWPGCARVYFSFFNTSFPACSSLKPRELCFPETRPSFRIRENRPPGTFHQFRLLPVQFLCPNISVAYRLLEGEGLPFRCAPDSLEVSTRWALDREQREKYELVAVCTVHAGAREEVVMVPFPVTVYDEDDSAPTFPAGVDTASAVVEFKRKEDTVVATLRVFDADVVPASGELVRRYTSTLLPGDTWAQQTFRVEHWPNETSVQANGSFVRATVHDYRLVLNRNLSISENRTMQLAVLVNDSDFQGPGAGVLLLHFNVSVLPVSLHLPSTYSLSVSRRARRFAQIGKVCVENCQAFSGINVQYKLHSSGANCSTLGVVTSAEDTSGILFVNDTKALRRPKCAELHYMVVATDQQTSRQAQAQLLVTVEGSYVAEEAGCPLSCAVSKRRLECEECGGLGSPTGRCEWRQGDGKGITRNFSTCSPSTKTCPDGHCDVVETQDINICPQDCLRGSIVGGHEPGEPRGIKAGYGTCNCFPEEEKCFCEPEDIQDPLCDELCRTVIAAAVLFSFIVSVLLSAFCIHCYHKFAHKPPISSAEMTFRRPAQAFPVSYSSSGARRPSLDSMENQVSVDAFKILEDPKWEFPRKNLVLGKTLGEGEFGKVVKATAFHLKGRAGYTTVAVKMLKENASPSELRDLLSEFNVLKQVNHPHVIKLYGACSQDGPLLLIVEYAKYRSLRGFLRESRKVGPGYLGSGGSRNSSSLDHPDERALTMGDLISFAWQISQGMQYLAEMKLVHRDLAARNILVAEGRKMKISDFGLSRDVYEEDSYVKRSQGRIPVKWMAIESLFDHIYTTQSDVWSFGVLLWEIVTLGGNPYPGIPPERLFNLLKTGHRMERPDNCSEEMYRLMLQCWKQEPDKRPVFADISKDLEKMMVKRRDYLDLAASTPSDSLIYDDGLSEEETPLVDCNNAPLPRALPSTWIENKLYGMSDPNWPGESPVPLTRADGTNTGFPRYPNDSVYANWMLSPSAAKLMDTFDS
Description: as §1

[3] = biological target: T3, RET-NCOA4 (PTC3) (Homo sapiens, UniProt P07949); assay: as above; type: biochemical; conditions: compound at 1 uM; ATP 10 µM; read-out: % Enzyme Activity (relative to DMSO controls) RET-NCOA4 (PTC3)
T3 construct: purchased Reaction Biology Corp
T3 sequence (P07949 whole entry, looked up): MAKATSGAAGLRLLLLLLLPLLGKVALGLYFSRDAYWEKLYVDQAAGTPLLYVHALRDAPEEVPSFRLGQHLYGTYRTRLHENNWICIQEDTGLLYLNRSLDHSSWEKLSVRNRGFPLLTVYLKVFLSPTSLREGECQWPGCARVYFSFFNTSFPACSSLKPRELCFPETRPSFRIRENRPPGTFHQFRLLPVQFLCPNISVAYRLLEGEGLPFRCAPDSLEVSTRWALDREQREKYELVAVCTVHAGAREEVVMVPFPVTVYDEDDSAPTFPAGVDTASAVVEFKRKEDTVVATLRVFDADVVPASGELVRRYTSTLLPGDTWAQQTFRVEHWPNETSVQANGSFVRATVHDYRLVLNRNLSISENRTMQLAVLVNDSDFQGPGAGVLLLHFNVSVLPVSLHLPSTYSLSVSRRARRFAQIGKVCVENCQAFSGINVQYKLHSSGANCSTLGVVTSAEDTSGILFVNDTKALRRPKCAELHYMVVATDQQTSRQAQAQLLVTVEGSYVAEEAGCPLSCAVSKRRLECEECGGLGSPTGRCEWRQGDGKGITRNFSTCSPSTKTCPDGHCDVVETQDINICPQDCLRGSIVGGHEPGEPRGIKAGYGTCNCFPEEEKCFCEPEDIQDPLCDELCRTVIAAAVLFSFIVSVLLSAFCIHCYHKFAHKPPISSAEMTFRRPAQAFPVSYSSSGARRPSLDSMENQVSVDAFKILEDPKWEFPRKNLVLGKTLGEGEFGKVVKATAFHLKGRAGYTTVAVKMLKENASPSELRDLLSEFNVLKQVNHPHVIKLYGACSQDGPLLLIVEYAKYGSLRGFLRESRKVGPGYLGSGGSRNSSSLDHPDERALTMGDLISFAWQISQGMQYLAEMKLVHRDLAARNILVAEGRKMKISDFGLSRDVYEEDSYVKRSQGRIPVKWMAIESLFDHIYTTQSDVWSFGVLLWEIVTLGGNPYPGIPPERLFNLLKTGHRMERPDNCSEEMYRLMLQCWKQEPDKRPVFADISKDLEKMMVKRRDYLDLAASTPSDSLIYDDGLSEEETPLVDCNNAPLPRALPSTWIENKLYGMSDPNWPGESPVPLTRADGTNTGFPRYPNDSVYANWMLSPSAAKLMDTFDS
Description: as §1

[4] = system: BaF3-RET(V804M); assay: Cell proliferation inhibition (GI50), Cell Counting Kit-8, Ba/F3 cell line; type: cell-based, rodent; conditions: Mus musculus, BaF3; 72 hours incubation; Cell Counting Kit-8; read-out: GI50 of BaF3-RET(V804M)
Description: To evaluate the inhibitory activity of the compounds represented by Formula I or Formula IV according to the present invention against RET mutation-driven cell growth in the Ba/F3 cell line and against cell growth in the non-small cell lung cancer cell line A-549, the following experiment was performed.
Each cell line was seeded in a 96-well plate at 1×10^4 cells/90 µL/well, and 10 µL/well of culture medium containing each example and intermediate compound or DMSO control at 9 concentrations (1 nM to 100 µM) prepared by 3-fold serial dilutions was added to achieve a final concentration of 0 to 100 µM, followed by incubation for 72 hours in a 37°C, 5% CO2 incubator. After 72 hours of incubation, the compound-treated plates were removed, and Cell Counting Kit-8 solution was added at 10 µL/well and mixed well. The plates were then incubated for 2 hours in a CO2 incubator at 37°C, and the absorbance was measured at 450 nm using a microplate reader.
In addition, the data were expressed as a percentage relative to vehicle-treated cells, and GI50 values were calculated using GraphPad Prism 8.0 (GraphPad Software Inc., San Diego), and the results are shown in Table 8 below. As a control compound, ponatinib, a known RET inhibitor, was treated to calculate the GI50 values.

[5] = system: A-549; assay: Cell proliferation inhibition, Cell Counting Kit-8, non-small cell lung cancer cell line; type: cell-based; conditions: A-549 cell line; 72 hours incubation; test concentration not given

T1 sequence (P07949 29-1114): as the sequence (P07949 29-1114 G810R) above, with R782G counted along it

| Compound | remaining activity at 1 µM [1] [%] | IC50 [1] [nM] | remaining activity at 1 µM [2] [%] | IC50 [2] [nM] | remaining activity at 1 µM [3] [%] | GI50 [4] [nM] | Cell Proliferation (% of control) [5] [%] |
| --- | --- | --- | --- | --- | --- | --- | --- |
| Nc1cc(-c2ccc(N3CC(Oc4cccc(F)c4)C3)nc2)c2nccnc2c1 [Example 1, 8-(6-(3-(3-fluorophenoxy)azetidin-1-yl)pyridin-3-yl)quinoxalin-6-amine] | 0.51 | 3.9 | 24.5 | 275 | 1.11 | 1460 | 34.36 |
| CCNc1cc(-c2ccc(N3CC(Oc4cccc(F)c4)C3)nc2)c2nccnc2c1 [Example 3, N-ethyl-8-(6-(3-(3-fluorophenoxy)azetidin-1-yl)pyridin-3-yl)quinoxalin-6-amine] | 0.14 | 0.57 | 11.4 | 142 | 16.8 | 661 | 25.06 |

Source: patent EP4796538A1, “NOVEL QUINOXALINE COMPOUNDS, MANUFACTURING METHOD THEREOF, AND USES THEREOF” (Gachon University of Industry-Academic Cooperation …, priority 2023, dated 2025)
